The values that follow are results of earlier work, collected in patent US20070148194A1, “Novel nanoemulsion formulations” (priority 2005, published 2007).

The structures appear in SMILES notation.

The term IC50 denotes the concentration that gives 50% inhibition.

The subject of this data set is HIV. The following applies: in vitro; read-out: anti-HIV activity in vitro, IC50.

Regarding `CC(C)(C)NC(=O)[C@@H]1C[C@@H]2CCCC[C@@H]2CN1C[C@@H](O)[C@H](Cc1ccccc1)NC(=O)[C@H](CC(N)=O)NC(=O)c1ccc2ccccc2n1` [SQV, Saquinavir], the 50% inhibitory concentration (IC50) is 20 nM.
